EP2385948B1, “FUSED THIAZOLO AND OXAZOLO PYRIMIDINONES” (Torrent Pharmaceuticals Limited, priority 2009, dated 2011)

Columns and labels:
adrenomedullin mRNA = assay: In vitro induction of adrenomedullin mRNA (real-time PCR, normalized to 18S rRNA); format: cell-based; conditions: Homo sapiens, Hep3B, 6 h, Hep3B cell line, relative to vehicle control
Method: Hep3B cell line (ATCC HB8064) was employed. […] At the end of 6 hours, cells were lysed and total RNA was isolated. Expression of adrenomedullin mRNA along-with expression of 18S rRNA was monitored by real-time PCR. Adrenomedullin mRNA expression was normalized relative to the expression of 18S rRNA. The results were expressed as fold induction of adrenomedullin mRNA relative to vehicle treated control.

VEGF = assay: In vitro induction of VEGF (ELISA of cell culture supernatant); format: cell-based; conditions: Homo sapiens, Hep3B cell line, 16 hours, relative to vehicle control
Method: Hep3B cell line (ATCC HB8064) was employed. […] Supernatant obtained was analyzed for VEGF by ELISA (R&D systems, USA). […]

[1] = system: 5/6 nephrectomized (5/6 NX) rats; assay: Anemia associated with chronic kidney disease, 5/6 nephrectomized rat model; format: in vivo; conditions: for fold increase in reticulocyte production index: compared to control group
Method: The efficacy of the test compound to correct anemia associated with CKD was studied in an animal model of anemia - 5/6 nephrectomized (5/6 NX) rats^15,16,17. Animals were randomized based upon anemia and kidney dysfunction parameters and divided into two groups. One group received compound-10 (20mg/kg; b.i.d. i.p) for seven days while the control received respective vehicle. Blood sampling was done on day 3 and 7 post initiation of drug administration to check early markers of anemia correction.

[2] = system: renal ischemia and reperfusion induced acute kidney injury model in rats; assay: Renal ischemia and reperfusion induced acute kidney injury model; format: in vivo; conditions: 24hrs post initiation of ischemia, from control group
Method: The efficacy of test compound to improve renal function was evaluated in a renal ischemia and reperfusion induced acute kidney injury model in rats. The beneficial effect of the compound was evaluated using two different treatment protocols. In one protocol treatment with test compound was given before onset of ischemia (pre-treatment) and the other protocol involed treatment with test compound initiated after the onset of ischemia (post-treatment).
Pre-ischemia intervention protocol: Rats were randomised into two groups, compound treated and vehicle control. Before initiation of bilateral renal ischemia, the animals in compound treatment group received multiple doses of compound no. 10 (i.e. pre treated) and control group received vehicle by i.p route.
Post-ischemia intervention protocol: Rats were randomised into two groups, compound treated and vehicle control. After intiation of bilateral renal ischemia, the animals in compound treatment group received multiple doses of compound no. 10 (i.e. post treated) and control group received vehicle in similar fashion by i.p route.
Induction of Renal ischemia and reperfusion in rats: All animals were anesthetized with pentobarbital sodium (50 mg/kg body wt). Homeothermic blanket was used to maintain a constant body temperature of 37°C during surgery and ischemia. A midline incision was made at the ventral side to access the kidneys and both renal pedicle were isolated and occluded for 35 mins using microclips, which was verified by the change of the renal color. After an ischemic period of 35 min, the microclips were removed and reperfusion initiated. The abdomen was closed and skin & muscles sutured and animal allowed to recover. Blood sample of 300 µl was taken via sublingual vein puncture at various predetermined time points.
In both protocols tested i.e pre-ischemia intervention and post-ischemia intervention, renal function improvement was assessed by measuring serum creatinine and BUN (blood urea nitrogen) at various time points post ischemia. Results are expressed below as % reduction from their control group at 24hrs post initiation of ischemia.

erythropoietin = assay: In vitro erythropoietin induction (ELISA of cell culture supernatant); conditions: Homo sapiens, Hep3B, 16 h, read-out: EPO fold induction, Hep3B cell line, 200 uM, 16 hours, relative to vehicle control
Method: Hep3B cell line (ATCC HB8064) was employed. Induction of erythropoietin was carried out for the indicated dose of compounds for 16 hours duration. At the end of 16 hours, cell culture medium was collected and centrifuged to remove any debris. Supernatant obtained was analyzed for erythropoietin by ELISA (R&D systems, USA). The results were expressed as fold induction as compared to vehicle control.

[3] = day 7 of treatment, 5/6 NX rats, 20mg/kg b.i.d. i.p, compared to control
[4] = Post-ischemia intervention, i.p. 0.3mg/kg as 1st dose & 0.1mg/kg as subsequent dose
[5] = Pre-ischemia intervention, i.p. 10 mg/kg multiple dose

## O=C(O)CNC(=O)c1c(O)nc2sc3c(n2c1=O)CCCCC3 [Compound 10, [(2-Hydroxy-4-oxo-6,7,8,9-tetrahydro-4H,5H-10-thia-1,4a-diaza-benzo[a]azulene-3-carbonyl)-amino] -acetic acid]
Adrenomedullin mRNA
  fold induction at 200 µM: > 8
VEGF
  fold induction at 200 µM: 2 to 4
[1]; 5/6 NX rats, 20mg/kg b.i.d. i.p for seven days, vehicle control undetectable (<45 pg/ml)
  circulating EPO levels: 115 to 3900 pg/mL
[1]; day 3, 5/6 NX rats, 20mg/kg b.i.d. i.p
  fold increase in reticulocyte production index: 3 fold
[1]; day 7, 5/6 NX rats, 20mg/kg b.i.d. i.p
  fold increase in reticulocyte production index: 5.6 fold
[1]; [3]
  increase in erythrocyte count: 24%
  increase in hematocrit percent: 25%
  increase in hemoglobin content: 30%
[2]; [4]
  % reduction BUN: 17.0%
  % reduction Ser.Creatinine: 31.0%
[2]; [5]
  % reduction BUN: 18.0%
  % reduction Ser.Creatinine: 33.0%
erythropoietin
  fold induction at 200 µM: > 16

## CC(NC(=O)c1c(O)nc2sc3c(n2c1=O)CCCCC3)C(=O)O (stereo not shown) [Compound 32, 2-[(2-Hydroxy-4-oxo-6,7,8,9-tetrahydro-4H,5H-10-thia-1,4a-diaza-benzo[a]azulene-3-carbonyl)-amino]-propionic acid]
Adrenomedullin mRNA
  fold induction at 200 µM: 2 to 4
VEGF
  fold induction at 200 µM: 2 to 4
erythropoietin
  fold induction at 200 µM: 9 to 16

## CC1(C)CCc2c(sc3nc(O)c(C(=O)NCC(=O)O)c(=O)n23)C1 [Compound 34, [(2-Hydroxy-7,7-dimethyl-4-oxo-5,6,7,8-tetrahydro-4H-9-thia-1,4a-diaza-fluorene-3-carbonyl)-amino]-acetic acid]
Adrenomedullin mRNA
  fold induction at 200 µM: 5 to 8
VEGF
  fold induction at 200 µM: 2 to 4
erythropoietin
  fold induction at 200 µM: > 16
